Patent US8753644B2, “Grass peptides for vaccine” (Circassia Limited, priority 2009, dated 2014)
No end group written: not given here.

tested on: not listed separately; test: Solubility of peptides; details: not given

solubility [µg/mL]	Substance
> 20000	FIPMKSSWGA [Ber02]
> 20000	KDSDEFIPMKSSWGAIWR [Ber02B]
> 20000	KFIPTLVAAVKQAYAAKQ [Bio03A]
10000	KKPEVKYAVFEAALTKAIT [Rye09B2]
10000	KPEVKYAVFEAALTKAIT [Rye09B1]
> 20000	KSSWGAIWRIDPKKPLK [Ber02C]
> 20000	KYDAYVATLTEALR [Bio02A]
> 20000	LKKAVTAMSEAEK [Bio04A]
10000	NAGFKAAVAAAANAPPK [Rye05C]
5000	PEVKYAVFEAALTKAIT [Rye09B]
2000	WGAIWRIDTPDKL [Tim04A]

tested on: not listed separately; test: physchem; details: not given

solubility [µg/mL]	Substance
> 20000	SGKAFGAMAKKGQED [Ber01, SGKAFGAMAKKGQED]

tested on: peripheral blood mononuclear cells (PBMCs) from grass allergic individuals; test: In vitro T cell cytokine release assay (IFN-γ, IL-10, IL-13) in PBMC cultures; assay type: cell-based, human; details: single peptide; group of 28 subjects

Substance	≧9/28 +ve for one or more cytokine?
Bio04: Group 5 peptide of Table 2, sequence only in drawing (TALKKAVTAMSEAEKEA)	Yes
Bio05: Group 5 peptide of Table 2, sequence only in drawing (NDKFTVFESAFNKALNE)	Yes

same assay, conditions: single peptide; number of 28 grass allergic subjects positive (reading > four times control well)

Substance	IFN-γ +ve/28	IL-10 +ve/28	IL-13 +ve/28
Bio04: Group 5 peptide of Table 2, sequence only in drawing (TALKKAVTAMSEAEKEA)	12 +ve/28	8 +ve/28	5 +ve/28
Bio05: Group 5 peptide of Table 2, sequence only in drawing (NDKFTVFESAFNKALNE)	11 +ve/28	1 +ve/28	5 +ve/28
